From patent US7781580B2, “Stilbene derivatives as new cancer therapeutic agents” (Virginia Commonwealth University, priority 2007, dated 2010)
Where a name gives a salt, the structure may show the parent alone.

Tests used:
[1] = test system: UCI101 ovarian cancer cells; assay: Alamar Blue cell growth inhibition, UCI101; type: cell-based; conditions: for relative potency / activity: UCI101, 48 hours
Experimental: Cell growth was measured by AlamarBlue™ staining and the percentage of cell growth inhibition was calculated and compared with the control cells that were treated with 0.1% DMSO, the vehicles for the stilbene compounds.
Cells were treated with the tested drug for 2 days before analysis of cell growth by Alamar Blue™ staining. Cells treated with 0.1% DMSO were used as control and set as 100%.
(§1) (a) In vitro sensitivity of UCI101 cells toward three potential stilbene prodrugs, 5a-c, was tested in 96-well plates using Alamar Blue™ assays to determine cell growth inhibition. […] (b) 5b induces cell cycle change and apoptosis in UCI101 cells. Cells were incubated with 5b at 1, 3, 10 μM for 16 hours followed by PI staining and flow cytometry analysis. A subG0/1 population, representing apoptotic cells, appeared along with a decrease of the G1/G2 ratio after cells were treated with 3 μM 5b. Higher concentration (10 μM) of 5b completely killed cells, as was the case with stilbene 4a at […]. (c) Cells treated with stilbene 4a and 5b were stained with phospho-histone 3B, a mitotic marker. The positive signals of phospho-histone 3B were shown in green and nuclei were stained with DAPI in blue. […] (d) In vivo efficacy of 5b compared with stilbene 4a. Nude mice were injected with UCI101 ovarian cancer cells and treated with 7 doses of 5b,c or stilbene 4a every 2-3 days. Tumor volume was calculated and plotted against days.
(§2) Various cancer cell lines were grown in 96-well plates for drug sensitivity assays. Once cells achieved 50% confluence, the incubation media was changed to the same cell growth media with different concentrations of the tested compounds or vehicle alone. Cells were then incubated for 48 hours before the cell growth inhibition study. To determine the degree of cell growth inhibition, 1/10 volume of Alamar Blue™ solution was added to each well and optical density (OD) at 570 and 600 nm was determined. The percentage of growth inhibition was calculated according to the manufacturer's formula as follows: The percentage of growth is [(117216×A570)−(80586×A600)]/[(117216×A^o570)−(80586×A^o600)]×100. In this formula, A570 is the absorbance of the treated samples at 570 nm; A600 is the absorbance of the treated samples at 600 nm; A^o570 is the absorbance of the […] samples at 570 nm; and A^o600 is the absorbance of the untreated samples at 600 nm. The two constants, 117216 and 80586, are the extinction coefficients of Alamar Blue™ at 570 and 600 nm respectively. Each concentration was repeated in triplicate to minimize the error.
(§3) We first tested the cytotoxic effect of various stilbene derivatives for their in vitro efficacy of suppressing tumor cell proliferation. Cells were first plated in 96-well plates at 50% confluence and treated with 0, 0.01, 0.03, 0.1, 0.3, 1.0, 3.0, 10 μM concentrations of stilbene derivatives for 48 hours in triplicate. Alamar Blue™ reagent was added into each well at 1/10 volume and incubated for 2 hours before quantification of the absorbance at 570 and 600 nm.

[2] = test system: SKOV3 ovarian cancer cells; assay: Alamar Blue cell growth inhibition, SKOV3; type: cell-based
Experimental: Cells were incubated with various concentrations of the compounds for 48 hours. Cell growth was measured by Alamar Blue™ staining and the percentage of cell growth inhibition was calculated and compared with the control cells that were treated with 0.1% DMSO, the vehicle for the stilbene compounds.
as §2

[3] = test system: SNU423 hepatocellular carcinoma cells; assay: Alamar Blue cell growth inhibition, SNU423; type: cell-based
Experimental: Cell growth was measured by Alamar Blue™ staining and the OD absorbance at 570 and 600 nm was determined by a microplate reader. The percentage of cell growth inhibition was calculated and compared with the control cells that were treated with 0.1% DMSO, the vehicle for the stilbene compounds.
as §2, §3

[4] = test system: UCI101 ovarian cancer cells (xenograft); assay: UCI101 xenograft in nude mice; type: in vivo
Experimental: as §1
We next tested whether 5b could be converted into stilbene 4a in circulation. […] Blood was collected at 20, 60 and 240 min after injection for spot check of stilbene 4a level in serum. […] The in vivo efficacy of 5b and 5c was compared to stilbene 4a in a pilot study using 5 mice in each group.

[5] = test system: HL60 leukemic cells (xenograft); assay: HL60 xenograft model in SCID mice; type: in vivo; conditions: 5 mg/kg/day for 4 days
Experimental: FIG. 20. Effect of stilbene 4a in vivo. (a) Induction of cell death in vivo by stilbene 4a. Tumor was harvested at 24 hours after treatment for TUNEL assay. (b) Histological sections of tumor. Tumor harvested at 24 hours after injection of stilbene 4a was analyzed by H & E staining. The area with lighter color is the necrotic region. (c) Tumor growth suppression. SCID mice were injected subcutaneously with 5×10^6 HL60 cells at each flank. Once the diameter of tumor reached 5 mm in diameter in majority of mice, mice were treated with 5 daily injection of stilbene 4a. Tumor volume was calculated by the long and short axis of tumor and plotted against days. Each group contains 5 mice.
HL60 leukemic cells were injected subcutaneously into ICR-scid mice (Taconic Inc.) on flank. After tumor becomes visible after 12 days, Mice will be treated with stilbene 4a by intravenous injection after dissolved in 10% DMSO in normal saline. For acute effect study, mice were sacrificed 24 hours after injection and tumor and bone marrow were harvested for histological staining and flow cytometry analysis. For long term effect study, stilbenes were injected intravenously from tail veins at 2 or 10 mg/kg for 5 consecutive days. Negative control mice were treated with 10% DMSO in normal saline and positive control mice were treated with Ara-C at 5 mg/kg. Tumor volume was measured twice a week for 4 weeks by the long and short axes of tumor. Volume was calculated by the formula ab^2/2, in which “a” represents the long axis and “b” the short axis of tumor. Mice were euthanized if the calculated tumor reached 10% of the body weight.

Tubulin (>99% pure) = assay: tubulin polymerization assay (OD 340 nm); type: biochemical; conditions: OD340 nm; nocodazole and paclitaxel 10 μM
Experimental: FIG. 3a-d. Stilbenes inhibit tubulin polymerization. (a) Effect of stilbene 4a. Pure tubulin was incubated with various concentrations of stilbene 4a, 10 μM nocodazole, and 10 μM paclitaxel in the polymerization buffer. The OD at 340 nm was monitored every minute by SpectraMAX 250 and plotted against time. (b) Effect of stilbene 4c. (c) Comparison of same concentrations of stilbenes 4a, 4a trans, 4c and 4c trans with control. […] Tubulin was incubated with [^3H]-colchicine and various concentrations of different stilbenes for 20 min. Tubulin was then separated from the unbound [^3H]-colchicine by Microcon-30 and washed three times with PBS. The radioactivity of the tubulin was counted. […] All experiments were done in triplicates.
The tubulin polymerization assay kit was purchased from Cytoskeleton (Denver, Colo.). Tubulin (>99% pure) was mixed with general tubulin buffer (GTB, 80 mM PIPES pH 6.9, 2 mM MgCl2, 0.5 mM EGTA, and 1 mM GTP) in a 96-well plate at 37° C. Absorbance at 340 nm was measured every 1 min for 60 min by SpectraMAX 250 (Molecular Devices, Sunnyville, Calif.). Analysis of the results was performed by SoftMAX Pro version 1.2.0 from the same company.

| melting point | Structure (SMILES) | relative potency / activity [1] | also measured |
| --- | --- | --- | --- |
| 147 to 149 °C | CCOc1cc(/C=C/c2ccc(OC)c(N)c2)cc(OC)c1.Cl |  |  |
| 120 to 122 °C | COc1cc(/C=C\c2ccc(OC)c(N)c2)cc(OC(C)C)c1.Cl |  |  |
| 134 to 136 °C | COc1cc(/C=C/c2ccc(OC)c(N)c2)cc(OC(C)C)c1.Cl |  |  |
| 137 to 140 °C | C=CCOc1cc(/C=C/c2ccc(OC)c(N)c2)cc(OC)c1.Cl |  |  |
| 157 to 159 °C | COc1cc(/C=C\c2ccc(OC)c(N)c2)cc(OCCO)c1 (as salt: hydrochloride) [10a, (Z)-2-{3-[2-(3-Amino-4-methoxy-phenyl)-vinyl]-5-methoxy-phenoxy}-ethanol, hydrochloride] |  |  |
|  | COc1cc(/C=C\c2ccc(OC)c(CN3C(=O)c4ccccc4C3=O)c2)cc(OC)c1 [3e, (Z)-2-{5-[2-(3,5-Dimethoxy-phenyl)-vinyl]-2-methoxy-benzyl}-isoindole-1,3-dione] |  | effective concentration, cell growth suppression ([1]; UCI101): > 3 µM |
|  | COc1cc(/C=C\c2ccc(OC)c(C(=O)O)c2)cc(OC)c1 [4d, (Z)-5-[2-(3,5-Dimethoxy-phenyl)-vinyl]-2-methoxybenzoic acid.] |  | activity ([2]; SKOV3): not active; effective concentration, blocking cell proliferation ([3]; SNU423, 48 hours): > 10 µM |
|  | COc1cc(/C=C\c2ccc(OC)c(NC(=O)NCCN3CCOCC3)c2)cc(OC)c1 [5a, (Z)1-{5-[2-(3,5-Dimethoxy-phenyl)-vinyl]-2-methoxy-phenyl}-3-(2-morpholin-4-yl-ethyl)-urea, hydrochloride] | showed no activity |  |
|  | COc1cc(/C=C\c2ccc(OC)c(NC(=O)OCCOCCOCCO)c2)cc(OC)c1 [5c, (Z)-{5-[2-(3,5-Dimethoxy-phenyl)-vinyl]-2-methoxy-phenyl}-carbamic acid-2-[2-(2-hydroxy-ethoxy)-ethoxy]-ethyl ester] | showed no activity | tumor growth versus control mice ([4]; 7 doses every 2-3 days): tumor growth rate the same as that of control mice; mouse weight ([4]; mouse, in vivo): did not show any significant change |
|  | COc1cc(/C=C\c2ccc(OC)c(N)c2)cc(OCC(=O)O)c1 [10f, (Z)-{3-[2-(3-Amino-4-methoxy-phenyl)-vinyl]-5-methoxy-phenoxy}-acetic acid] | not active |  |
|  | COc1cc(/C=C\c2ccc3ccn(C)c3c2)cc(OC)c1 [13b, (Z)-6-[2-(3,5-Dimethoxy-phenyl)-vinyl]-1-methyl-1H-indole] | less potent than stilbene 4a by one log |  |
|  | COc1ccc(/C=C\c2ccc3c(ccn3C)c2)cc1N [14b, (Z)-2-Methoxy-5-[2-(1-methyl-1H-indol-5-yl)-vinyl]-phenylamine] | less potent than stilbene 4a by one log |  |
|  | Nc1ccn([C@@H]2O[C@H](CO)[C@@H](O)[C@@H]2O)c(=O)n1 [Ara-C, reference compound] |  | adverse effect [5]: Ara-C-induced conjunctivitis |
|  | COc1cc2c(c(OC)c1OC)-c1ccc(OC)c(=O)cc1[C@@H](NC(C)=O)CC2 [colchicine, reference compound] |  | effective / active concentration ([2]; SKOV3, 48 hours): 0.1 µM |
|  | COc1cccc2c1C(=O)c1c(O)c3c(c(O)c1C2=O)C[C@@](O)(C(=O)CO)C[C@@H]3O[C@H]1C[C@H](N)[C@H](O)[C@H](C)O1 [doxorubicin, reference compound] |  | relative potency ([3]; SNU423): potency similar to that of 10a |
|  | COC(=O)Nc1nc2ccc(C(=O)c3cccs3)cc2[nH]1 [nocodazole, reference compound] |  | effect on tubulin polymerization (Tubulin (>99% pure)): suppressed |

| Structure (SMILES) | melting point | relative potency / activity [1] | also measured |
| --- | --- | --- | --- |
| CCOc1cc(/C=C\c2ccc(OC)c(N)c2)cc(OC)c1.Cl [10b, (Z)-5-[2-(3-Ethoxy-5-methoxy-phenyl)-vinyl]-2-methoxy-phenylamine, hydrochloride] | 127 to 131 °C | active but less effective than stilbene 4a |  |
| C=CCOc1cc(/C=C\c2ccc(OC)c(N)c2)cc(OC)c1.Cl [10e, (Z)-5-[2-(3-Allyloxy-5-methoxy-phenyl)-vinyl]-2-methoxy-phenylamine, hydrochloride] | 122 to 125 °C | active but less effective than stilbene 4a |  |
| COc1ccc(/C=C\c2ccc3[nH]ccc3c2)cc1N.O=C(O)C(=O)O [14a, (Z)-5-[2-(1H-Indol-5-yl)-vinyl]-2-methoxy-phenylamine, oxalate salt] | 112 to 115 °C | not active |  |
